# In patent US12157730B2, “Heteroaryl derivative, method for producing same, and pharmaceutical composition comprising same as effective component” (VORONOI INC., priority 2019, dated 2024):
# Molecular target: T1, Ba/F3 cell EGFR Exon20 ins NPH (Homo sapiens, UniProt P00533, INS773NPH)
# T1 construct: expressed in transfected cells; host or cells: Ba/F3
# Assay: Ba/F3 cell proliferation suppression, EGFR Exon20 ins NPH
# Format: cell-based
# Conditions: GI50 class; Ba/F3 cell line with NPH inserted at Exon20 of EGFR; 72 hours
# How it was run: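 After 72 h compound exposure (twelve 3-fold steps, 0.3 nM–50 um final), live cells were measured by CellTiter-Glo luminescence and growth expressed as % of control to derive GI50. Cells were seeded at 3000–5000 per well a day earlier; Ba/F3 medium contained IL-3; three repeats.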
row,SMILES,Ba/F3 (NPH) Activity
1,"C=CC(=O)Nc1cc(Nc2cc(N3OCC[C@@H]3c3ccc(F)c(F)c3F)ncn2)c(OC)cc1N(C)CCN(C)C [compound 571, N-(2-((2-(dimethylamino)ethyl) (methyl)amino)-4-methoxy-5-((6-((R)-3-(2,3,4-trifluorophenyl)isoxazolidine-2-yl)pyrimidine-4-yl)amino)phenyl) acrylamide]",A (GI50 < 50 nM)
2,"C=CC(=O)Nc1cc(Nc2cc(N3OCC[C@@H]3Cc3ccc(C(F)(F)F)cc3)ncn2)c(OC)cc1N1CCC(N2C[C@H]3C[C@@H]2CO3)CC1 [compound 1051, N-(2-(4-((1R,4R)-2-oxa-5-azabicyclo [2.2.1]heptane-5-yl)piperidine-1-yl)-4-methoxy-5-((6-((S)-3-(4-(trifluoromethyl)benzyl)isoxazolidine-2-yl)pyrimidine-4-yl)amino)phenyl)acrylamide]",A (GI50 < 50 nM)
3,"C=CCN1CCN(C2CCN(c3cc(OC)c(Nc4cc(N5OCC[C@@H]5c5cc(F)ccc5F)ncn4)cc3NC(=O)C=C)CC2)CC1 [Example 88, N-(2-(4-(4-allylpiperazine-1-yl)piperidine-1-yl)-5-((6-((R)-3-(2,5-difluorophenyl)isoxazolidine-2-yl)pyrimidine-4-yl)amino)-4-methoxyphenyl) acrylamide]",A (GI50 < 50 nM)
4,"C=CC(=O)Nc1cc(Nc2cc(N3OCC[C@H]3Cc3ccccc3)ncn2)c(OC)cc1N(C)CCN(C)C [compound 973, N-(5-((6-((R)-3-benzylisoxazolidine-2-yl)pyrimidine-4-yl)amino)-2-((2-(dimethylamino)ethyl) (methyl)amino)-4-methoxyphenyl) acrylamide]",B (50 nM ≤ GI50 < 500 nM)
5,"C=CC(=O)Nc1cc(Nc2cc(N3OCC[C@@H]3c3ccc(Cl)c(F)c3)ncn2)c(OC)cc1N1CCC(N2C[C@@H]3C[C@H]2CO3)CC1 [compound 802, N-(2-(4-((1S,4S)-2-oxa-5-azabicyclo [2.2.1]heptane-5-yl)piperidine-1-yl)-5-((6-((R)-3-(4-chloro-3-fluorophenyl)isoxazolidine-2-yl)pyrimidine-4-yl)amino)-4-methoxyphenyl) acrylamide]",A (GI50 < 50 nM)
6,"C=CC(=O)Nc1cc(Nc2cc(N3OCC[C@@H]3c3cccc(F)c3Cl)ncn2)c(OC)cc1N1CCC(N2CCN(C(C)=O)CC2)CC1 [compound 601, N-(2-(4-(4-acetylpiperazine-1-yl)piperidine-1-yl)-5-((6-((R)-3-(2-chloro-3-fluorophenyl)isoxazolidine-2-yl)pyrimidine-4-yl)amino)-4-methoxyphenyl) acrylamide]",A (GI50 < 50 nM)
7,"C=CC(=O)Nc1cc(Nc2cc(N3OCC[C@@H]3Cc3cccc(N(C)C)c3)ncn2)c(OC)cc1N1CCN(C2CC2)CC1 [compound 1043, N-(2-(4-cyclopropylpiperazine-1-yl)-5-((6-((S)-3-(3-(dimethylamino)benyl)isoxazolidine-2-yl)prymidine-4-yl)amino)-4-methoxyphenyl) acrylamide]",C (500 nM ≤ GI50 < 5000 nM)
8,"C=CCN1CCN(C2CCN(c3cc(OC)c(Nc4cc(N5OCC[C@@H]5c5cccc(Cl)c5F)ncn4)cc3NC(=O)C=C)CC2)CC1 [Example 90, N-(2-(4-(4-allylpiperazine-1-yl)piperidine-1-yl)-5-((6-(R-3-(3-chloro-2-fluorophenyl)isoxazolidine-2-yl)pyrimidine-4-yl)amino)-4-methoxyphenyl) acrylamide]",A (GI50 < 50 nM)
9,"C=CC(=O)Nc1cc(Nc2cc(N3OCC[C@@H]3c3cc(F)cc(Cl)c3)ncn2)c(OC)cc1N1CCC(N2CCN(C3CC3)[C@H](C)C2)CC1 [Example 158, N-(5-((6-((R)-3-(3-chloro-5-fluorophenyl)isoxazolidine-2-yl)pyrimidine-4-yl)amino)-2-(4-((R)-4-cyclopropyl-3-methylpiperazine-1-yl)piperidine-1-yl)-4-methoxyphenyl) acrylamide]",A (GI50 < 50 nM)
10,"C=CC(=O)Nc1cc(Nc2cc(N3OCC[C@@H]3c3c(F)cccc3F)ncn2)c(OC)cc1N1CCC(N2CCN(C3CC3)[C@@H](C)C2)CC1 [Example 136, N-(2-(4-((S)-4-cyclopropyl-3-methylpiperazine-1-yl)piperidine-1-yl)-5-((6-((R)-3-(2,6-difluorophenyl)isoxazolidine-2-yl)pyrimidine-4-yl)amino)-4-methoxyphenyl) acrylamide]",B (50 nM ≤ GI50 < 500 nM)
11,"C=CC(=O)Nc1cc(Nc2cc(N3OCC[C@@H]3c3cccc(F)c3F)ncn2)c(OC)cc1N1CCN(C2COC2)CC1 [compound 923, N-(5-((6-((R)-3-(2,3-difluorophenyl)isoxazolidine-2-yl)pyrimidine-4-yl)amino)-4-methoxy-2-(4-(oxetane-3-yl)piperazine-1-yl)phenyl) acrylamide]",A (GI50 < 50 nM)
12,"C=CC(=O)Nc1cc(Nc2cc(N3OCC[C@@H]3c3cccc(Cl)c3Cl)ncn2)c(OC)cc1N1CCN(C(C)=O)CC1 [compound 519, N-(2-(4-acetylpiperazine-1-yl)-5-((6-((R)-3-(2,3-dichlorophenyl)isoxazolidine-2-yl)pyrimidine-4-yl)amino)-4-methoxyphenyl) acrylamide]",A (GI50 < 50 nM)
13,"C=CC(=O)Nc1cc(Nc2cc(N3OCC[C@@H]3c3cc(F)cc(Cl)c3)ncn2)c(OC)cc1N1CCC(N2CCO[C@H](C)C2)CC1 [compound 596, N-(5-((6-((R)-3-(3-chloro-5-fluorophenyl)isoxazolidine-2-yl)pyrimidine-4-yl)amino)-4-methoxy-2-(4-((R)-2-methylmorpholino)piperidine-1-yl)phenyl)acrylamide]",A (GI50 < 50 nM)
14,"C=CC(=O)Nc1cc(Nc2cc(N3OCC[C@@H]3c3cccc(F)c3F)ncn2)c(OC)cc1N1CCN(C)C[C@H]1C [compound 885, N-(5-((6-((R)-3-(2,3-difluorophenyl)isoxazolidine-2-yl)pyrimidine-4-yl)amino)-2-((R)-2,4-dimethylpiperazine-1-yl)-4-methoxyphenyl) acrylamide]",A (GI50 < 50 nM)
15,"C=CC(=O)Nc1cc(Nc2cc(N3OCC[C@@H]3c3cc(F)cc(Cl)c3)ncn2)c(OC)cc1N1CCC(N2CCN(C3CC3)C[C@@H]2C)CC1 [Example 160, N-(5-((6-((R)-3-(3-chloro-5-fluorophenyl)isoxazolidine-2-yl)pyrimidine-4-yl)amino)-2-(4-((S)-4-cyclopropyl-2-methylpiperazine-1-yl)piperidine-1-yl)-4-methoxyphenyl) acrylamide]",A (GI50 < 50 nM)
16,"C=CC(=O)Nc1cc(Nc2cc(N3OCC[C@@H]3c3cc(F)cc(F)c3)ncn2)c(OC)cc1N1CCC(N2C[C@@H]3CCN(C)[C@@H]3C2)CC1 [compound 446, N-(5-((6-((R)-3-(3,5-difluorophenyl)isoxazolidine-2-yl)pyrimidine-4-yl)amino)-4-methoxy-2-(4-((3aS,6aS)-1-methylhexahydropyrrolo [3,4-b]pyrrole-5(1H)-yl)piperidine-1-yl)phenyl)acrylamide]",A (GI50 < 50 nM)
17,"C=CC(=O)Nc1cc(Nc2cc(N3OCC[C@@H]3c3cc(F)cc(F)c3)ncn2)c(OCC)cc1N1CCC(N2CCN(C3CC3)CC2)CC1 [Example 116, N-(2-(4-(4-cyclopropylpiperazine-1-yl)piperidine-1-yl)-5-((6-((R)-3-(3,5-difluorophenyl)isoxazolidine-2-yl)pyrimidine-4-yl)amino)-4-ethoxyphenyl) acrylamide]",C (500 nM ≤ GI50 < 5000 nM)
